Source: patent US11844801B2, “Oral compositions of MK2 pathway inhibitor for treatment of immune conditions” (priority 2020, dated 2023)
Read-outs that look alike come from different tables or passages of the source.

Tests used:
[1] = Phase 2a RA study: safety (adverse events)
Method: Patient eligibility was assessed based on the following criteria: (i) a diagnosis of adult onset RA (ACR/EULAR classification criteria); (ii) DAS28-CRP≥3.2 defined as moderate to high disease activity; (iii) moderately to severely active RA defined by at least 4/28 tender and 4/28 swollen joints; (iv) hsCRP≥5 mg/L at screening; (v) definitive intra-articular synovitis or osteitis defined as a score of 1 or greater on a Hand-Wrist MM (using RAMRIS); (vi) stable MTX dose (defined as 7.5 mg to 25 mg weekly) for at least 4 weeks prior to the screening visit. […] Study medications were administered orally for 12 weeks. Patients were required to remain on a stable dose of MTX (7.5 mg to 25 mg/week) and a stable dose of folic or folinic acid (≥5 mg/week) for the duration of the study.
Patients attended clinic visits on Days 7, 14, 28, 42, 56, and 84 (±1 day) for safety, efficacy, PK, and PD assessments. The morning dose of study medication was administered in the clinic on each study visit day.
At the completion of 4 weeks of treatment (Day 28), each patient's safety data (e.g., AEs, laboratory values, vital signs, and ECGs) will be reviewed to ensure that the patient is tolerating the treatment regimen and is deemed suitable to continue treatment for the next 8 weeks.

[2] = test system: regulatory T cells (CD45+ CD3+ CD4+ Foxp3+); test: Murine collagen-induced arthritis model, T regulatory cells in popliteal lymph nodes; assay type: in vivo, mouse; conditions: 1000 ppm chow from day 18, murine CIA model
Method: In this model DBA/1 mice (12/group) were immunized with bovine collagen/CFA to induce arthritis. […] At day 21, mice were boosted with bovine collagen/CFA, and at day 35 the study was terminated. Popliteal lymph nodes were dissected from mice, cleaned of any trace fat, mechanically dissociated and filtered through 70 micron cell strainers. Live lymphocytes were counted using a Moxi GO II cell counter (Orflo). One million lymphocytes were plated, treated with Fc block, and stained with antibodies targeting surface receptors (including CD45, CD3, CD4) along with a fixable live/dead dye. Cells were fixed/permeabilized (eBioscience Transcription Factor Staining kit) and stained with anti-Foxp3 antibody. The cells were collected via flow cytometry analysis on an Attune NxT instrument. T-regulatory cells were gated as lymphocyte-sized, live, CD45+ CD3+ CD4+ Foxp3+ cells.

TNF-α [3] = test: LPS stimulated TNF-α production in human whole blood; assay type: cell-based
Method: Compounds were serially diluted in 100% DMSO (Sigma-Aldrich, D2650) followed by a 50× dilution into DMEM/10% FBS (Gibco, 11965/26140). Vehicle consisted of DMSO at a final assay concentration of 0.1%. Pin tools (V&P Scientific, Inc., VP246) were placed in the wells and the plate was placed at 37° C. with 5% CO2, with gently shaking for five minutes, then pin tools were removed and saved. […] Pin tools were placed in the wells in the same orientation as the previous step and gently shook for five minutes at 37° C. with 5% CO2, then removed. […] The plasma was harvested and assayed for TNF-α, IL-1β, and IL-6 using Meso Scale Discovery Technology V-plex human cytokine kits according to the kit protocol. The kit plates were read using an MSD Sector S 6000 instrument. Calculations to establish cytokine calibration curves and to determine analyte concentrations in the samples were carried out using the MSD DISCOVERY WORKBENCH® analysis software.

IL-6 [4] = test: R848 stimulated IL-6 production in human whole blood; assay type: cell-based; conditions: R848, 0.5 ug/mL, 5 hr
Method: Human whole blood assays were performed as described above with the exceptions listed below. […] Compounds were serially diluted in 100% DMSO (Sigma-Aldrich, D2650) followed by a 10× dilution into RPMI (Gibco, 11875). After the one-hour incubation with the compounds or vehicle, 2 μL of R848 (InvivoGen, tlrl-r848) in RPMI (Gibco, 11875) was added for a final concentration of 0.5 μg/mL to each well except for the no stimulus wells. After five hours of incubation with R848, plasma was harvested and assayed for TNF-α, IL-1β, IL-6 and IL-8 using Meso Scale Discovery Technology V-plex human cytokine kits according to the kit protocol.

IL-6 [5] = test: Rat whole blood LPS stimulated IL-6; assay type: cell-based; conditions: 100 ng/mL, 4 hr
TNF-α [6] = test: TLR2 ligand (Pam3) or LPS induced TNF-α in peripheral blood mononuclear cells; assay type: cell-based; conditions: 10-10,000 nM
Method: LPS or Pam3 were then added to the designated wells for a final concentration of 100 ng/mL for both (or medium for unstimulated control). After 30 min MSU was added to the designated wells for final concentration of 100 μg/mL (or medium for no-MSU control). After a 6-hour incubation, plates were centrifuged at 500×g for 5 min, and medium was collected from each well for assay. Released TNF-α was measured using Meso Scale Discovery technology, an ELISA-like format with capture and detection antibodies, but with a final readout using electrochemiluminescence.

[7] = cited from earlier work

## Cc1cnc(-c2ccnc(C(C)(C)O)n2)cc1-n1c(C)cc(OCc2ncc(F)cc2F)c(Cl)c1=O (single isomer, unassigned) [ATI-450, 3-chloro-4-((3,5-difluoropyridin-2-yl)methoxy)-2′-(2-(2-hydroxypropan-2-yl)pyrimidin-4-yl)-5′,6-dimethyl-2H-[1,4′-bipyridin]-2-one]
[1]; 50 mg BID plus MTX, 12 weeks
  tolerability: very well tolerated, with no serious or severe adverse events reported
[1]; 50 mg BID, RA patients, n = 16
  Abnormal ECG, Mild, n (%): 1 (6.25)
  Abnormal ECG, Moderate, n (%): 0
  Blood cholesterol increased, Mild, n (%): 1 (6.25)
  Blood cholesterol increased, Moderate, n (%): 0
  Blood creatine phosphokinase increased, Mild, n (%): 0
  Blood creatine phosphokinase increased, Moderate, n (%): 1 (6.25)
  Constipation, Mild, n (%): 1 (6.25)
  Constipation, Moderate, n (%): 0
  Ear infection, Mild, n (%): 1 (6.25)
  Ear infection, Moderate, n (%): 0
  Essential hypertension, Mild, n (%): 0
  Essential hypertension, Moderate, n (%): 1 (6.25)
  Hyperliidaemia, Mild, n (%): 0
  Hyperliidaemia, Moderate, n (%): 1 (6.25)
  Hypokalaemia, Mild, n (%): 0
  Hypokalaemia, Moderate, n (%): 1 (6.25)
  Ligament sprain, Mild, n (%): 1 (6.25)
  Ligament sprain, Moderate, n (%): 0
  Low density lipoprotein increased, Mild, n (%): 1 (6.25)
  Low density lipoprotein increased, Moderate, n (%): 0
  Mouth ulceration, Mild, n (%): 1 (6.25)
  Mouth ulceration, Moderate, n (%): 0
  Palpitations, Mild, n (%): 1 (6.25)
  Palpitations, Moderate, n (%): 0
  Rash erythematous, Mild, n (%): 1 (6.25)
  Rash erythematous, Moderate, n (%): 0
  Sinusitis, Mild, n (%): 0
  Sinusitis, Moderate, n (%): 1 (6.25)
  Skin abrasion, Mild, n (%): 1 (6.25)
  Skin abrasion, Moderate, n (%): 0
  Urinary tract infection, Mild, n (%): 0
  Urinary tract infection, Moderate, n (%): 2 (12.5)
  Ventricular extrasystoles, Mild, n (%): 1 (6.25)
  Ventricular extrasystoles, Moderate, n (%): 0
  White blood cell count increased, Mild, n (%): 1 (6.25)
  White blood cell count increased, Moderate, n (%): 0
[2]
  number of regulatory T cells: significantly increased the number of regulatory T cells
TNF-α [3]; Human Whole Blood, LPS, 100 ng/mL, 4 or 24 hr, read-out: IC50, TNF-α
  IC50: 29 ± 9 nM
TNF-α [3]; human whole blood, LPS 100 ng/mL, read-out: IC50, LPS-stimulated TNF-α
  IC50: 10 to 100 nM
IL-6 [4]
  IC50: 79.2 ± 17.2 nM
IL-6 [5]
  IC50: 28.3 ± 1.2 nM
TNF-α [6]
  TLR2 ligand induced TNF-α production: dose dependently inhibits
[7]; relative to placebo
  bone marrow IL-1β in murine NOMID model: reduction in bone marrow levels of IL-1β
[7]; transgenic animal model
  effect on disease in murine NOMID model: dramatic attenuation of disease
